14 compounds from PubChem BioAssay (NCI) can be followed below.

Holding throughout (assay): growth of human tumour cells (NCI), 48 h
Experiment [1] relates to CAKI-1 renal.
For experiment [2], the system named is CCRF-CEM leukemia.
Experiment [3] relates to HT29 colon.
Experiment [4] has as its system MALME-3M melanoma.
The test system of experiment [5] is MOLT-4 leukemia.
Experiment [6] relates to OVCAR-3 ovarian.
Experiment [7] has as its system RXF 393 renal.
The subject of experiment [8] is SK-MEL-28 melanoma.
Experiment [9] deals with SK-OV-3 ovarian.
Experiment [10] concerns MDA-MB-231 breast.
The subject of experiment [11] is T-47D breast.

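Following 48 hours of exposure in 96-well plates, responses at five concentrations were used to interpolate endpoints linearly. TGI marks complete inhibition of growth.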 Bounds are passed on as bounds.

For the compound `Cc1c(C(=O)/C=C/c2ccccc2O)c(=O)n(-c2ccccc2)n1C`, the TGI is 73.8 µM in experiment [1]; 86.9 µM in experiment [2]; greater than 100 µM in experiment [3]; 70.7 µM in [4]; 63.2 µM in experiment [5]; greater than 100 µM in experiment [6]. Further, the TGI in experiment [7] is 50.8 µM; in experiment [8] it was greater than 100 µM; in experiment [9] it was greater than 100 µM.

With `COc1ccc(C2SCC(=O)N2NC(=O)c2ccc(NC(C)=O)cc2)cc1` (stereo unspecified), the TGI in experiment [3], in experiment [10], in [5], in experiment [6], in experiment [7] and in [8] was greater than 100 µM throughout. Moreover, the TGI in experiment [9] and in experiment [11] was greater than 100 µM in each case.

For the compound `O=c1c(=O)c2c(Br)sc(Br)c2c1=O`, the TGI stood at 33.4 µM in [1]; 57.4 µM in experiment [3]; 31.8 µM in experiment [4]; 48.3 µM in experiment [5]; 35.2 µM in experiment [6]; 34.7 µM in experiment [7]. Also, the TGI is 28.7 µM in experiment [8], greater than 100 µM in [9] and 47.8 µM in [11].

Regarding `O=C1CC(c2cccc(Br)c2)n2cccc21` (stereo unspecified), the TGI in [1], in [2], in [3], in [10], in experiment [5] and in [6] was greater than 100 µM throughout. The TGI in experiment [7], in experiment [8], in [9] and in experiment [11] was greater than 100 µM throughout.

As to `Cc1ccc2oc(=O)c(C(=O)Nc3nc(C45CC6CC(CC(C6)C4)C5)cs3)cc2c1`, the TGI in experiment [1], in [2], in [3], in [4], in experiment [10] and in experiment [5] was greater than 100 µM each time. In addition, the TGI in experiment [6], in experiment [7] and in experiment [8] was greater than 100 µM in each case.

On to `CCOC(=O)c1sc2[n+](c1C)C(=O)/C(=C/c1ccc([N+](=O)[O-])cc1)S2`, for which the TGI in [1] was 37.7 µM; in experiment [2], greater than 100 µM; in experiment [3], 41.9 µM; in experiment [10], greater than 100 µM; in experiment [5] it was 53.5 µM; in experiment [6], 24.1 µM. The TGI in [7] is 81.5 µM; in experiment [8], greater than 100 µM; in experiment [9], 64.6 µM; in [11], 77.2 µM.

For `Nc1ccc(C(=O)c2cn(CCN3CCOCC3)c3ccccc23)c2ccccc12`, the TGI is greater than 100 µM in experiment [1]; 45.3 µM in experiment [2]; 55.9 µM in experiment [3]; greater than 100 µM in experiment [4]; 52.5 µM in [5]; greater than 100 µM in experiment [6]. For the same compound, the TGI in [8] is greater than 100 µM; in [9], greater than 100 µM; in [11], 72.8 µM.

For the compound `Cc1cc(S(=O)(=O)Nc2nc(N)nc(N(C)C)n2)c(SCC(=O)O)cc1Cl`, the TGI in experiment [1], in experiment [2], in experiment [3], in [4], in [5] and in experiment [6] was greater than 10 µM throughout. Also, the TGI in experiment [7], in [8], in experiment [9] and in experiment [11] was greater than 10 µM in each case.

Consider `CC(C)(C)C(=O)OC12/C(=N/O)CCCCCC1c1ccccc12` (stereo unspecified), for which the TGI in experiment [1] was found to be 24.6 µM; in experiment [2], 64 µM; in experiment [3], 26 µM; in [4], 37.4 µM; in experiment [5], 34.4 µM; in experiment [6] it was 32.1 µM. Besides, the TGI stood at 33.9 µM in experiment [7], 32.8 µM in experiment [8] and 33.6 µM in experiment [9].

Turning to `Cc1csc(/N=C\c2c(O)c3ccccc3oc2=O)n1`, the TGI was 34.1 µM in [1]; greater than 100 µM in [2]; greater than 100 µM in experiment [3]; 70.3 µM in experiment [4]; 34.7 µM in experiment [10]; greater than 100 µM in experiment [5]. Also, the TGI is greater than 100 µM in [6] and 45.6 µM in experiment [9].

Regarding `C/C=C/C1OC(O)(C(C)C(O)[C@H](C)C2OC(=O)/C(OC)=C/C(C)=C/[C@@H](C)[C@@H](O)[C@@H](C)C(O)C(C)C/C(C)=C/C=C/C2OC)C[C@@H](OC2CC(O)C(OC(N)=O)C(C)O2)C1C` (stereo partly specified), the TGI in experiment [1] was 13.9 µM; in experiment [3] it was 1.54 µM; in experiment [4] it was 0.801 µM; in experiment [5] it was less than 0.01 µM; in experiment [6] it was 3.24 µM; in experiment [7], 1.91 µM. Further, the TGI is 3.18 µM in experiment [8] and greater than 43.4 µM in experiment [9].

In the case of `CC(C)C(/C=C/c1ccc(Cl)c(Cl)c1)=N\NC(=O)N/N=C(/C=C/c1ccc(Cl)c(Cl)c1)C(C)C`, the TGI in [1], in experiment [2], in [3], in experiment [4], in experiment [10] and in [5] was greater than 100 µM each time. Further, the TGI in experiment [6], in experiment [8] and in experiment [9] was greater than 100 µM in each case.

On to `C=C1C(=O)O[C@H]2[C@@H](O)[C@H](C)CCC[C@]3(C)O[C@H]3CC[C@@]3(C)O[C@@H]3C[C@@H]12`, for which the TGI in experiment [1] is 13 µM; in [2] it was 5.22 µM; in [3] it was 12.1 µM; in experiment [10], 10.8 µM; in [5] it was 7.15 µM; in experiment [6] it was 10.6 µM. Moreover, the TGI in experiment [7] is 7.13 µM; in experiment [8], 8.91 µM; in experiment [9] it was 25 µM; in experiment [11], 19.9 µM.

Regarding `CC[C@H]1C=CCC[C@@]2(C[C@@H]3CC[C@H]4[C@@H](C(=O)OCCCCCCCCCCCCCCCC(=O)N(CCCN)C[C@@H](O)CCN)[C@@]5(CCC[C@@H](C)O5)NC(=[N+]34)N2)O1`, the TGI in experiment [1] is greater than 10 µM; in [3] it was 2.96 µM; in [4] it was 3.24 µM; in [5], 2.84 µM; in experiment [6], greater than 10 µM; in experiment [7], 4.41 µM. Besides, the TGI is 2.88 µM in experiment [8] and 3.19 µM in experiment [9].
